We go through four compounds from paper PMC4920643 (Neuropharmacology, 2016).

The subject of one assay is 5-HT3 receptors. Particulars: cited from earlier work.
Assay [1] concerns the target nicotinic acetylcholine receptors. Particulars: read-out: IC50, block of nicotinic acetylcholine receptors; cited from earlier work.
Another assay relates to α7 nACh receptors. The settings on record: cited from earlier work.
The next assay deals with T1, 5-HT3A receptors (Homo sapiens, UniProt P46098).
T1 construct: expressed in transfected cells; host or cells: Xenopus oocytes injected with cRNA (pGEMHE)
T1 sequence (P46098 24-478): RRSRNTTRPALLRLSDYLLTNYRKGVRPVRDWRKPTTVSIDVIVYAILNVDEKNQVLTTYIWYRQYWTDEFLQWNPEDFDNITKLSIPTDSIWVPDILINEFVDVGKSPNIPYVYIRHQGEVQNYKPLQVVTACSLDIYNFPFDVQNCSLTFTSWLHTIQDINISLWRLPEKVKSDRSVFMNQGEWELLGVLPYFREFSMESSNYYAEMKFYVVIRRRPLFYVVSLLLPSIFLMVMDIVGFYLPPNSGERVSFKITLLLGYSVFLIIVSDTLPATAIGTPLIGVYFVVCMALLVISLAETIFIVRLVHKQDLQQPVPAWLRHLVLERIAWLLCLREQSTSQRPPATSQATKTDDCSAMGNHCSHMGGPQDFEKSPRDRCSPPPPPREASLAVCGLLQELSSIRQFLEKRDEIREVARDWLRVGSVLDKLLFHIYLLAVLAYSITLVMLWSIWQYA
It counts as cell-based.

Assay [2] relates to 5-HT3 receptor. Particulars: cited from earlier work.
Assay [3] has as its target 5-HT3 receptor. Particulars: cited from earlier work. This is another data set of the same source.

As to `CN1C2CCC1CC(OC(=O)c1ccccc1)C2` (stereo not shown) [tropane benzoate], the “affinity at 5-HT3 receptors” value with 5-HT3 receptors was 63 nM. For orientation: IC50 means the concentration at which inhibition is half-maximal. Regarding `CN1[C@@H]2C[C@@H](OC(=O)[C@H](CO)c3ccccc3)C[C@H]1[C@@H]1O[C@@H]12` [scopolamine], the IC50 in assay [1] was 928 µM. Besides, the “expression of α7 nACh receptors” value in the assay on α7 nACh receptors is given as “increases the expression”. Turning to `NCCc1c[nH]c2ccc(O)cc12` [5-HT], on 5-HT3A receptors, the “Hill slope of agonist concentration-response curve” value stood at 2.06 ± 0.14 and the “desensitisation time constant τ of inward current” value was 42 ± 5 s. What is called pA2 is the negative logarithm of the molar antagonist concentration that doubles the agonist concentration needed for the same response. One may read the pKd as the negative decadic logarithm of the Kd, by convention in mol/L. As to `CN1[C@@H]2C[C@@H](OC(=O)c3c[nH]c4ccccc34)C[C@H]1[C@@H]1O[C@@H]12` [SDZ-ICT 322], the pA2 in the assay on 5-HT3 receptor [2] is reported as 10.6. For the same compound, the pKd on 5-HT3 receptor [3] is 9.2.
